Test in all cases: selectivity profiling in a panel of 340 wild-type kinases (Reaction Biology Europe)
Common to all, as to format: binding

The target of assay [1] is T1, 340 wild-type kinases (Homo sapiens, UniProt P08922).
T1 construct: purchased Reaction Biology Europe

Assay [2] deals with T2, 340 wild-type kinases (Homo sapiens, UniProt Q9BUB5).
T2 construct: purchased Reaction Biology Europe

Assay [3] addresses T3, 340 wild-type kinases (Homo sapiens, UniProt Q02156).
T3 construct: purchased Reaction Biology Europe
T3 sequence (Q02156 1-737): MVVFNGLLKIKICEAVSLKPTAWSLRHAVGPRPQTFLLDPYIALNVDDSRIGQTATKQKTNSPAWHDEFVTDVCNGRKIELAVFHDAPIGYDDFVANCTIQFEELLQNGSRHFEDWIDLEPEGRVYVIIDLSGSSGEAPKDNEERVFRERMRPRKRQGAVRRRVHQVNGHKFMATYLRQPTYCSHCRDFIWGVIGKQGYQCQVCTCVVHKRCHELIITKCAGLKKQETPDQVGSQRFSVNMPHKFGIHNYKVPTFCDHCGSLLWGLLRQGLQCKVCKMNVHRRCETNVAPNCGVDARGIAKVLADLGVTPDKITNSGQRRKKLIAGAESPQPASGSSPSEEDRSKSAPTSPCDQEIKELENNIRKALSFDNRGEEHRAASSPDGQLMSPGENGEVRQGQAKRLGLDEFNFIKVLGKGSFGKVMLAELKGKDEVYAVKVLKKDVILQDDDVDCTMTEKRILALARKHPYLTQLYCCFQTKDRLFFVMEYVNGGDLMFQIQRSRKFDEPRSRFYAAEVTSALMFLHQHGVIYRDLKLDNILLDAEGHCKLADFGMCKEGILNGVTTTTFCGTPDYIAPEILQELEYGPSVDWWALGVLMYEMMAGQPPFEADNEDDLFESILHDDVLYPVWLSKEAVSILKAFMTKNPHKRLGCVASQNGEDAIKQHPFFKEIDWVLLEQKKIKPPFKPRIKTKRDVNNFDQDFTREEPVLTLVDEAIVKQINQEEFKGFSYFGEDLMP

In assay [4] the target is T4, 340 wild-type kinases (Homo sapiens, UniProt Q92630).
T4 construct: purchased Reaction Biology Europe
T4 sequence (Q92630 1-601): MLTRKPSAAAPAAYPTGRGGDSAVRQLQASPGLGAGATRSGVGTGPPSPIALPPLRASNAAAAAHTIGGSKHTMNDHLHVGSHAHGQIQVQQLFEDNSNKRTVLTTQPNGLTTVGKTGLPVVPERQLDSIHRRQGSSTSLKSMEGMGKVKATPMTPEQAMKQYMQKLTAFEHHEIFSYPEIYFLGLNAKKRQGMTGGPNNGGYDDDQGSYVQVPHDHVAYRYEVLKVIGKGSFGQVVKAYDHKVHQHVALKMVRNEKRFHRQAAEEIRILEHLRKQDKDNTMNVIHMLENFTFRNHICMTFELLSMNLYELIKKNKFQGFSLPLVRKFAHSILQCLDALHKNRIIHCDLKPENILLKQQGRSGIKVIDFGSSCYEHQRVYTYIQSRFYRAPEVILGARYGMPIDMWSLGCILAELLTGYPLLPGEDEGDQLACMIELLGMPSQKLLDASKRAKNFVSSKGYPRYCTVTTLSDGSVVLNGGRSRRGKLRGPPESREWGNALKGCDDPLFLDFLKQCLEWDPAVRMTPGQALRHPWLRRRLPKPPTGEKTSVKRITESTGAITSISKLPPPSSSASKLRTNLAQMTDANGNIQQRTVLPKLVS

Assay [5] concerns the target T5, 340 wild-type kinases (Homo sapiens, UniProt P54760).
T5 construct: purchased Reaction Biology Europe
T5 sequence (P54760 16-987): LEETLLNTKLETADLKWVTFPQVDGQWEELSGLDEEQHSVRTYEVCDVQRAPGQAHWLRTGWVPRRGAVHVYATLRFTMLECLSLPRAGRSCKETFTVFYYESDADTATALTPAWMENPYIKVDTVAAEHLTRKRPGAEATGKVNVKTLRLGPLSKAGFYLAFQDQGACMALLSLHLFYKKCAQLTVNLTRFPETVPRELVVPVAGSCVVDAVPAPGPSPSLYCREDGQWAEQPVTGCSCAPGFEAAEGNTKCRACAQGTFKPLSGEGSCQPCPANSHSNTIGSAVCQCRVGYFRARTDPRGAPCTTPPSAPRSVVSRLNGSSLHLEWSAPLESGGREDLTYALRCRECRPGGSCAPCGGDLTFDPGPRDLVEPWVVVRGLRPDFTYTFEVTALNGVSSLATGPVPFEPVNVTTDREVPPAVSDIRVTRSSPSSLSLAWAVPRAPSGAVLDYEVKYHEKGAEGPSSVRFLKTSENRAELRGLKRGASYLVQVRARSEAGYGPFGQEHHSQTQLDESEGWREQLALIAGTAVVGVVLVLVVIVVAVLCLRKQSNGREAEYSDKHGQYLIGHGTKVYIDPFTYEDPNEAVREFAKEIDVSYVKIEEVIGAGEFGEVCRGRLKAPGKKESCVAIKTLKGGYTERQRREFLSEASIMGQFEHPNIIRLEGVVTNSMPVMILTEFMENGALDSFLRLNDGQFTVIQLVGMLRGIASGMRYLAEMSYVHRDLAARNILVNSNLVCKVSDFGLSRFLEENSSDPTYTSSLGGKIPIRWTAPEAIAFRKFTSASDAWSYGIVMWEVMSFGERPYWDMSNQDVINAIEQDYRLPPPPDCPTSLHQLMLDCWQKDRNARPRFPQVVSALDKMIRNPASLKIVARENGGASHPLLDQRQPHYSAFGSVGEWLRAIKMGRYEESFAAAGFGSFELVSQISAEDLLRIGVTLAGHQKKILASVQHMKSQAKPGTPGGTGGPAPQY

SMILES strings stand for the structures. Where two headings read alike, the source gives them in different places.

T1 sequence (P08922 28-2347): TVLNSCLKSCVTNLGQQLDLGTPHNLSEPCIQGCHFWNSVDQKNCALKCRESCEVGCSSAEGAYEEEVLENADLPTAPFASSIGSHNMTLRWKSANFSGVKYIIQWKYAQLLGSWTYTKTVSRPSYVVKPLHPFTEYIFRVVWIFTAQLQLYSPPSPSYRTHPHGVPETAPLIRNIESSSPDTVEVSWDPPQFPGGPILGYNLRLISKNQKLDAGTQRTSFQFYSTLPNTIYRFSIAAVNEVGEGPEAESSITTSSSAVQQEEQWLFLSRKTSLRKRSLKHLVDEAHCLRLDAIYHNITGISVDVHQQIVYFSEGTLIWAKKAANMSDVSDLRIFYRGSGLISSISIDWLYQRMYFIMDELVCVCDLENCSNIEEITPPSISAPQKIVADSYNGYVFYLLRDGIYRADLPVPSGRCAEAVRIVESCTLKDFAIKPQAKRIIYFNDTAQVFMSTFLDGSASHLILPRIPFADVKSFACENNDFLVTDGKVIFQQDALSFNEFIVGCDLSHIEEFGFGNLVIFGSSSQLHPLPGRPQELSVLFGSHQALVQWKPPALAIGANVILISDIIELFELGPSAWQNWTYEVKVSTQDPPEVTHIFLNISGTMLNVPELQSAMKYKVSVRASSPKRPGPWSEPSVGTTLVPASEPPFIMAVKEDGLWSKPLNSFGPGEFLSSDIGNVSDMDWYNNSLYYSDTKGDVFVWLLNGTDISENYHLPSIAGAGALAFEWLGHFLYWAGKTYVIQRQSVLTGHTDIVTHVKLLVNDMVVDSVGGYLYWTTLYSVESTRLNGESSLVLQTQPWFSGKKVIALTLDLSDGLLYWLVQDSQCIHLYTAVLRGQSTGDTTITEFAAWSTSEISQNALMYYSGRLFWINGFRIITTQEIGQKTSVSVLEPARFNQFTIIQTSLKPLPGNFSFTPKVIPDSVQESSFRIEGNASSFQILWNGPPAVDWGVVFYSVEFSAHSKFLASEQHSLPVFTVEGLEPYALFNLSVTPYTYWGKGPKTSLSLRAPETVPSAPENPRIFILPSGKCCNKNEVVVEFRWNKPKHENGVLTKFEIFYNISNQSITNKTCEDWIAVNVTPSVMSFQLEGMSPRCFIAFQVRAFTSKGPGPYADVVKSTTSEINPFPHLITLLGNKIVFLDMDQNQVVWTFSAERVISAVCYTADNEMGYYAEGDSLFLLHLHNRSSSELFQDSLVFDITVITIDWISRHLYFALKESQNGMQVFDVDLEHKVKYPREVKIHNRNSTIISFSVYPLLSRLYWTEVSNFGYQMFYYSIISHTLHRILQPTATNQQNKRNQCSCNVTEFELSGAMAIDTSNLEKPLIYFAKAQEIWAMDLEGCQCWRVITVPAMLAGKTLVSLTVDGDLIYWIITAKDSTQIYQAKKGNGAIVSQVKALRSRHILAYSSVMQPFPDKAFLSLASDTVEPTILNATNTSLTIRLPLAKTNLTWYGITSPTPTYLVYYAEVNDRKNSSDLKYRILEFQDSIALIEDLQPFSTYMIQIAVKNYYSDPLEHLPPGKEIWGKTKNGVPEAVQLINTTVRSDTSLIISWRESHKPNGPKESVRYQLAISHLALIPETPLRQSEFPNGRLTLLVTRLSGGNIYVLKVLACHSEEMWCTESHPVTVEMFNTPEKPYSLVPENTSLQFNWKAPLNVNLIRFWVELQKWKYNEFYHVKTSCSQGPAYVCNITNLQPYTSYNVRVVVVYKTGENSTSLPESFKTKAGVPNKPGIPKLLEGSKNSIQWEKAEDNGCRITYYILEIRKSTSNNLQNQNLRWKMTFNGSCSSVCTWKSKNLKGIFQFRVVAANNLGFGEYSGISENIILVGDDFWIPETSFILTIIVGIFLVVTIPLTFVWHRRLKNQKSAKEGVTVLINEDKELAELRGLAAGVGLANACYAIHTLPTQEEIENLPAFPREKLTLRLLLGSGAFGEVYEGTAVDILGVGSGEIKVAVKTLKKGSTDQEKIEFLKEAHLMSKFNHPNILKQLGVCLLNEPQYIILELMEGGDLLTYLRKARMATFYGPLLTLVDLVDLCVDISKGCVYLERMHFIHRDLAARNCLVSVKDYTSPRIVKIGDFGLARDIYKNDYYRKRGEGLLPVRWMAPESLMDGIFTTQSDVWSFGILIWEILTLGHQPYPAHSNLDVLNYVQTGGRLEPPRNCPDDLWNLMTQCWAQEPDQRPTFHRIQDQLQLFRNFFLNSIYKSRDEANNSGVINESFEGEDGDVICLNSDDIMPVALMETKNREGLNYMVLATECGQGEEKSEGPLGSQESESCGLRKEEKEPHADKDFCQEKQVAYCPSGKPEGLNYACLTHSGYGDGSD
T2 sequence (Q9BUB5 whole entry): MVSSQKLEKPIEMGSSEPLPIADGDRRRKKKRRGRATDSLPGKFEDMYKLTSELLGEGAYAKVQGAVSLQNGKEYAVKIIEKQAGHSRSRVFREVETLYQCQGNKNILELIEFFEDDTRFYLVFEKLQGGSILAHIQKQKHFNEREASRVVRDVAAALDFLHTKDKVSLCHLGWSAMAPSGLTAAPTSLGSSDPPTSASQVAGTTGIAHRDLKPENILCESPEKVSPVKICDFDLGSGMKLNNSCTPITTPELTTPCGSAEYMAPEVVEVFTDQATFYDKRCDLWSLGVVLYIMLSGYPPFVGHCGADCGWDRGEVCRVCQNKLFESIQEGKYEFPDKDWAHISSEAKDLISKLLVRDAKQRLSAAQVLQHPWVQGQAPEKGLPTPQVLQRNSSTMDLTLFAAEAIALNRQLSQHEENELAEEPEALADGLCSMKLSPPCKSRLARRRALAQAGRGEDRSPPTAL

For the compound `CNC(=O)c1ccc2c(c1)C(=O)c1ccc(Nc3ccc(F)c(NC(=O)C4CC4)c3)cc1CC2` [Compound 2015], the remaining activity at 0.2 µM on 340 wild-type kinases [1] (0.2 µM 2015, read-out: ROS residual activity) was found to be 114%; at 340 wild-type kinases [1] (ROS, 0.2 µM, read-out: residual activity), 114%; on 340 wild-type kinases [2] (0.2 µM 2015, read-out: MKNK1 residual activity), 98.2%; at 340 wild-type kinases [2] (MKNK1, 0.2 µM, read-out: residual activity), 98.2%; on 340 wild-type kinases [3] (0.2 µM 2015, read-out: PKCepsilon residual activity), 83.1%; at 340 wild-type kinases [3] (PKCepsilon, 0.2 µM, read-out: residual activity), 83.1%. Further, the remaining activity at 0.2 µM at 340 wild-type kinases [4] (0.2 µM 2015, read-out: DYRK2 residual activity) is 95.7%; on 340 wild-type kinases [4] (DYRK2, 0.2 µM, read-out: residual activity) it was 95.7%; on 340 wild-type kinases [5] (0.2 µM 2015, read-out: EPHB4 residual activity) it was 101%; at 340 wild-type kinases [5] (EPHB4, 0.2 µM, read-out: residual activity) it was 101%. For the same compound, the remaining activity at 1 µM at 340 wild-type kinases [1] (1 µM 2015, read-out: ROS residual activity) worked out at 94.6%; on 340 wild-type kinases [1] (ROS, 1 µM, read-out: residual activity), 94.6%; on 340 wild-type kinases [2] (1 µM 2015, read-out: MKNK1 residual activity), 91.6%; on 340 wild-type kinases [2] (MKNK1, 1 µM, read-out: residual activity) it was 91.6%; at 340 wild-type kinases [3] (1 µM 2015, read-out: PKCepsilon residual activity), 90.5%; at 340 wild-type kinases [3] (PKCepsilon, 1 µM, read-out: residual activity), 90.5%. Also, the remaining activity at 1 µM on 340 wild-type kinases [4] (1 µM 2015, read-out: DYRK2 residual activity) worked out at 94.2%; on 340 wild-type kinases [4] (DYRK2, 1 µM, read-out: residual activity), 94.2%; at 340 wild-type kinases [5] (1 µM 2015, read-out: EPHB4 residual activity), 91.8%; at 340 wild-type kinases [5] (EPHB4, 1 µM, read-out: residual activity), 91.8%.

The values above are taken from paper PMC11864979, “First-in-class ultralong-target-residence-time p38α inhibitors as a mitosis-targeted therapy for colorectal cancer” (Nature Cancer, 2025).
